# Data published in patent publication US7795227B2, “Compounds and methods for treating seizure disorders” (Wisconsin Alumni Research Foundation, priority 2004, dated 2010).
# Values joined by “and” are separate entries in the source; they are usually repeats but may differ in a detail not shown here. Identical values can stand only once. “Also recorded” adds a separate entry of the source.
# Tests used:
# [1] = test system: rat hippocampal slices (CA3 synchronized burst discharges); assay: Synchronized bursting induced by elevated [K+]o in hippocampal slices, CA3 extracellular recording; format: cell-based
# Method: In these experiments, postnatal day 14 to 35 male Sprague-Dawley rats were anesthetized and decapitated. Brains were removed and transferred to ice cold artificial cerebrospinal fluid (ACSF), comprising 124 mM NaCl, 5 mM KCl, 1.25 mM NaH2PO4, 1.5 mM MgSO4, and 26 mM NaHCO3, supplemented with 10 mM glucose), which was continuously bubbled with 95% O2 and 5% CO2. Transverse hippocampal slices (˜400 microns) were prepared on a Leica VT1000s vibratome (Wetzlar Germany). The slices were allowed to recover for 1 hour at room temperature and were then transferred to an interface recording chamber at 34° C. in ACSF with 7.5 mM [K^+]o. Extracellular recordings were made from the CA3 region with an Axioclamp 2B (Axon Instruments, Forest City, Calif.) using a glass microelectrode filled with 150 mM NaCl. Data were recorded and analyzed using PClamp8 (Axon Instruments).
# Synchronized bursting was induced by incubating hippocampal slices in ACSF supplemented with to a final concentration of 7.5 mM [K^+]o, Baseline recordings were obtained after exposure to elevated [K^+]o for 1 hour and the burst frequency had stabilized.
# The reduction in burst frequency is shown in graphical form in FIG. 7.
# The effects of glucose deprivation on synchronized burst discharges were examined in rat hippocampal slices ex corpora using the methods described in Example 2. Spontaneous synchronized bursts were recorded in CA3 in ACSF containing 10 mM glucose supplemented with 7.5 mM [K^+]o for ˜1 hr, and then in glucose-free ACSF supplemented with 10 mM lactate or 10 mM pyruvate. […] The interburst interval increased to 24 seconds when the slice was exposed to glucose-free ACSF supplemented with 10 mM lactate, indicating an anticonvulsant effect of glucose deprivation.
# [2] = test system: neuropathic pain (mechanical allodynia); assay: Loose sciatic nerve ligation model of neuropathic pain, Von Frye filament test; format: in vivo, rat
# Method: The effects of 2-deoxy-D-glucose (2-DG), which has acute anticonvulsant properties in hippocampal slices and prevents the consequences of repeated evoked network synchronization in the kindling model of epilepsy, were evaluated for treatment of neuropathic pain. The effects of 2-DG were examined in the loose sciatic nerve ligation rat model of neuropathic pain. […] Effects of 2-DG on neuropathic pain were assessed by measurement of hindlimb withdrawal latency to mechanical stimulation and development of mechanical allodynia according to standardized methods.
# Male Sprague-Dawley rats (Harlan, 250-350 g) were behaviorally tested by measuring hindlimb withdrawal latency in response to mechanical stimulation of the hindlimb with standardized Von Frye filaments of increasing diameter, in order to verify that all animals initially had normal responses prior to surgical procedures and treatments. In the Von Frye method, animals are placed on a wire mesh floor, and the hindlimb is stroked with standardized filaments of increasing diameter until withdrawal is observed. The size of the filament evoking withdrawal is the Von Frye score. Withdrawal to smaller filaments indicates hyperalgesia, or mechanical allodynia when normally innocuous filaments produce withdrawal, and are regarded as measures of pain. Baseline withdrawal scores were used to assess effects of sciatic ligation and treatment with 2-DG.
# After obtaining baseline measurements, animals were then anesthetized with a combination of ketamine 70 mg/kg IP and xylazine […]. The sciatic nerve was exposed at mid-thigh level by blunt dissection through the biceps femoris muscles. […] The incision was closed in layers, and during the immediate post-operative period the animals were monitored for signs of behavior that would signify unexpected and undesirable reaction to the surgical procedure (loss of weight or appetite, lack of grooming or loss of locomotion).
# Hindlimb withdrawal responses were assessed postoperatively to verify that mechanical allodynia and hyperalgesia were induced as a result of the surgical ligation. […]
# [3] = test system: kindled seizures evoked by perforant path stimulation; assay: Kindling model of temporal lobe epilepsy, perforant path stimulation; format: in vivo, rat
# Excerpt: In the kindling model, repeated activation of neural pathways in vivo induces progressive electrographic and behavioral seizures, permanent increases in susceptibility to additional seizures, and eventually spontaneous seizures (Goddard et al., 1969, Experimental Neurology 25: 295-330; Pinel, 1978, Experimental Neurology 58: 190-202; Wada et al., 1975, Canadian Journal of Neurological Sciences 2: 477-492; Sayin et al. 2003, Journal of Neuroscience 23: 2759-2768). Kindling has become the most extensively studied experimental model of epilepsy (McNamara, 1999, Nature 399: A15-22). In a typical kindling protocol, periodic stimulation delivered once or twice daily gradually evokes an increasing synchronous electrical afterdischarge (AD) or electrographic seizure accompanied by a behavioral seizure. […] Kindling can be induced by electrical or chemical activation of a variety of neural pathways in a range of species that include amphibians, mammals, and primates (Morrell and Tsuru, 1976, Electroencephalography and Clinical Neurophysiology 40: 1-11); Wada and Mizoguchi, 1984; Epilepsia 25: 278-287). Because kindling induces permanent alterations in the brain and can be evoked in a range of species by a variety of stimuli, it has been regarded as a phenomenon of long-term brain plasticity as well as a model of temporal lobe epilepsy. The behavioral features of brief repeated kindled seizures evoked by limbic stimulation resemble human partial complex seizures with secondary generalization. In the early stages of limbic kindling in rodents, each stimulation evokes an AD accompanied by a brief partial seizure, which progresses to stimulus-evoked secondary generalized seizures. This feature is an example of the progressive functional alterations induced by kindling that are epileptogenic.
# Adult male Sprague-Dawley rats (weighing between 250-350 g, obtained from Harlan, Madison, Wis.) were anesthetized with ketamine (80 mg/kg intramuscularly) and xylazine (10 mg/kg intramuscularly), and were stereotactically implanted with an insulated stainless steel bipolar electrode for stimulation and recording. The electrode was implanted in the perforant path (8.1 mm posterior, 4.4 mm lateral, 3.5 mm ventral with respect to bregma), and was fixed to the skull with acrylic. After a two-week recovery period following electrode placement, unrestrained, awake, implanted rats received twice-daily kindling stimulation (5 days per week) with a one-second train of 62-Hertz (Hz) biphasic constant current 1.0-millisecond (ms) square wave pulses to induce kindled seizures. The electroencephalogram was recorded from the bipolar electrode, which was switched to the stimulator for the delivery of kindling stimulation. On the first day of stimulation, each rat received a stimulus train of 500 microAmperes (μA). If an AD was evoked, this intensity was used in subsequent stimulations. If no AD was evoked, the stimulation intensity was increased in a sequence of 500, 700, 900, 1000, 1100, 1200, 1300 and 1400 μA until an AD was evoked. The intensity that initially evoked AD was used for subsequent stimulations. […] If AD was evoked by 3 consecutive stimulations at a given intensity, the stimulation intensity was then decreased by 100 μA decrements. At stimulation intensities below 500 μA, the intensity was decreased in 30 μA decrements. These stimulation procedures deliver stimulation at the lowest intensity required to evoke an AD (Sutula and Steward, 1986, Journal of Neurophysiology 56: 732-746; Cavazos et al., 1991, Journal of Neuroscience 11: 2795-2803).
# The anticonvulsant and antiepileptic effects of 2-DG were confirmed in rats that experienced kindled seizures evoked by perforant path stimulation according to the protocol noted above. […]
smiles,measurement,setting,value
"O=CC[C@@H](O)[C@H](O)[C@H](O)CO [2-DG, 2-deoxy-D-glucose]",Burst frequency (epileptic bursts) after bath application,"[1]; 1 mM 2-DG, 7.5 mM [K+]o, FIG. 4B/4C",reduction in epileptic bursts; also recorded: decreased progressively
same,Persistence of anticonvulsant effect after return to ACSF without 2-DG,"[1]; ACSF with 7.5 mM [K+]o, FIG. 5B",≤ 60 min
same,Day of administration after which pain-reducing effects diminished or were extinguished,[2]; 250 mg/kg IP,4 to 5 days and 4 days
same,Motor or behavioral impairments,[2]; 250 mg/kg IP,did not result in any apparent motor or behavioral impairments
same,Mechanical allodynia (Von Frye score) compared to saline,"[2]; 250 mg/kg IP 30 minutes prior to testing, n=10, p=0.044 day 1, p<0.001 day 2",acutely reduced mechanical allodynia
same,Duration of anticonvulsant effects after stopping 2-DG,"[3]; 250 mg/kg twice daily for 3 months, twice daily stimulation continued",approximately 8 weeks
same,Effective dose in rats,[3]; intraperitoneal or subcutaneous administration,250 mg/kg
same,Time AD threshold remained elevated after stopping twice daily 2-DG,"[3]; kindled rat, 250 mg/kg IP",≤ 6 weeks
same,Effect on AD threshold compared to saline controls,"[3]; rats n=15 vs saline n=12, p<0.001 ANOVA, FIG. 2A",increased the AD threshold
same,ADs to Class 4,"[3]; rats, 2-DG 250 mg/kg IP 30 minutes before stimulation",20.9 +/− 4.0 ADs
same,ADs to Class 5 (first Class V generalized tonic clonic seizure),"[3]; rats, 2-DG 250 mg/kg IP 30 minutes before stimulation, n=11, p<0.03 vs saline",27.7±6.0 ADs and 27.7 +/− 6.0 ADs
same,ADs to Class 3,"[3]; rats, 2-DG 250 mg/kg IP 30 minutes before stimulation, number of afterdischarges to reach seizure class",16.7 +/− 3.1 ADs
same,AD threshold during repeated 2-DG administration,"[3]; single kindled rat, 250 mg/kg IP, from 200 μA, about 2-3 weeks of twice daily stimulation",~1500 μA
same,AD threshold after restarting 2-DG,"[3]; single kindled rat, FIG. 3, 250 mg/kg IP, rose from ~200 μAmps during 2-3 weeks",1500 μAmps
same,Progressive reduction in AD threshold with repeated ADs,"[3]; single rat, FIG. 3, 250 mg/kg IP prior to each stimulation, after the third evoked AD",appeared to prevent the progressive reduction in AD threshold
"O=C(O)CI [iodoacetate, reference compound]",Synchronized bursting in presence of iodoacetate,"[1]; 200 uM iodoacetate, ACSF with 10 mM glucose or 10 mM lactate, FIGS. 6 and 7",reduced synchronized bursting
same,Reduction in epileptic bursts with lactate as alternative energy source,"[1]; iodoacetate, lactate provided, FIG. 7",persists
CC(O)C(=O)O (stereo not drawn) [lactate],Interburst interval,"[1]; glucose-free ACSF with 10 mM substitute energy source, 7.5 mM [K+]o, baseline in 10 mM glucose ~3.8 seconds",24 s
